Values belong to the compound of their own block, whether it stands above or below them.
Tests used:
Type in all cases: physicochemical
[1] = Long term stability at 25° C. and 60% relative humidity (HPLC, ion chromatography, Karl-Fischer); conditions: for Impurity A concentration / Impurity B concentration / Total impurities concentration / Moisture concentration / Impurity E concentration / Impurity C concentration: 25° C./60% relative humidity; for Moisture concentration: Karl-Fischer; for Impurity E concentration: ion chromatography; for storage stability, conclusion in words: storage at 25° C./60% relative humidity
Description: Their pH was adjusted to 8.5 prior to lyophilization and they were stored in glass vials stoppered with a stopper specifically selected for its ability to retain as little moisture as possible after autoclaving and after drying for 8 h at 105° C. […] Cangrelor lots API A-B are cangrelor tetrasodium. They were stored in double polyethylene bags in […]. […] In addition their moisture content was determined by Karl-Fischer titration.

[2] = Photostability of solid cangrelor in quartz cuvettes, reverse phase HPLC
Description: Namely, solid cangrelor was placed in two quartz cuvettes. Both cuvettes were placed in a chamber and exposed to a combination of […] (near UV) and […] (visible) light for a total of 7.8×10^6 LUX hours and 221 watt hours/m^2, but one cuvette was wrapped in aluminum foil. After 17 days, the levels of impurities in the sample were determined by reverse phase HPLC.

[3] = Solution stability of cangrelor in purified water, reverse phase HPLC; conditions: 1 mg/mL in purified water
[4] = Accelerated pH stability of cangrelor in buffer solutions, reverse phase HPLC; conditions: 1 mg/mL, 7 days at 40° C. protected from light
Description: The extent of degradation was determined using a reverse phase HPLC method.

[5] = Hygroscopicity by dynamic vapor adsorption analysis
[6] = after 8 days, 4° C. and ambient humidity
[7] = after 8 days, 25° C. and 60% relative humidity
[8] = after 8 days, 40° C. and ambient humidity

- Impurity A concentration ([1]; 1 month): 0.28 % w/w
- Impurity B concentration ([1]; 1 month): 0.22 % w/w
- Total impurities concentration ([1]; 1 month): 1.10 % w/w
- Moisture concentration ([1]; 1 month): 7.7 % w/w
- Impurity E concentration ([1]; 1 month): 0.08 % w/w
- Impurity A concentration ([1]; 3 months): 0.47 % w/w
- Impurity B concentration ([1]; 3 months): 0.33 % w/w
- Total impurities concentration ([1]; 3 months): 1.40 % w/w
- Moisture concentration ([1]; 3 months): 11.3 % w/w
- Impurity E concentration ([1]; 3 months): 0.11 % w/w
- Impurity A concentration ([1]; Initial): 0.15 % w/w
- Impurity B concentration ([1]; Initial): 0.11 % w/w
- Total impurities concentration ([1]; Initial): 0.70 % w/w
- Moisture concentration ([1]; Initial): 4.3 % w/w
- Impurity E concentration ([1]; Initial): 0.06 % w/w
SMILES: CSCCNc1nc(SCCC(F)(F)F)nc2c1ncn2[C@@H]1O[C@H](COP(=O)([O-])OP(=O)([O-])C(Cl)(Cl)P(=O)([O-])[O-])[C@@H](O)[C@H]1O.[Na+].[Na+].[Na+].[Na+] [API A]
- storage stability, conclusion in words [1]: display significant degradation over time

- total level of impurities ([2]; solid cangrelor, initially): 0.8 % (w/w)
- total level of impurities ([2]; solid, exposed sample, near UV and visible light, 7.8×10^6 LUX hours and 221 watt hours/m^2, after 17 days): 4.3 % (w/w)
- total level of impurities ([2]; solid, shielded sample (cuvette wrapped in aluminum foil), after 17 days): 1.2 % (w/w)
- Cangrelor measured level ([3]; Initial): 98.23 % w/w
- Impurity A measured level ([3]; Initial): 0.16 % w/w
- Impurity C measured level ([3]; Initial): 0.28 % w/w
- Total Impurities measured level ([3]; Initial): 1.76 % w/w
- Cangrelor measured level [3, 6]: 98.45 % w/w
- Impurity A measured level [3, 6]: 0.22 % w/w
- Impurity C measured level [3, 6]: 0.26 % w/w
- Total Impurities measured level [3, 6]: 1.54 % w/w
- Cangrelor measured level [3, 7]: 96.94 % w/w
- Impurity A measured level [3, 7]: 1.58 % w/w
- Impurity C measured level [3, 7]: 0.27 % w/w
- Total Impurities measured level [3, 7]: 3.06 % w/w
- Cangrelor measured level [3, 8]: 90.46 % w/w
- Impurity A measured level [3, 8]: 7.50 % w/w
- Impurity C measured level [3, 8]: 0.37 % w/w
- Total Impurities measured level [3, 8]: 9.56 % w/w
- Impurity A ([4]; pH 1.0, 0.1M HCl): 28.51 % w/w
- Impurity D ([4]; pH 1.0, 0.1M HCl): 68.12 % w/w
- Total Impurities ([4]; pH 1.0, 0.1M HCl): 97.28 % w/w
- Impurity A ([4]; pH 3.0, Phosphate): 28.69 % w/w
- Impurity D ([4]; pH 3.0, Phosphate): 0.81 % w/w
- Total Impurities ([4]; pH 3.0, Phosphate): 31.48 % w/w
- Impurity A ([4]; pH 5.0, Phosphate): 20.70 % w/w
- Total Impurities ([4]; pH 5.0, Phosphate): 22.16 % w/w
- Impurity A ([4]; pH 7.0, Phosphate): 14.31 % w/w
- Total Impurities ([4]; pH 7.0, Phosphate): 15.71 % w/w
- Impurity A ([4]; pH 9.0, Phosphate): 3.25 % w/w
- Total Impurities ([4]; pH 9.0, Phosphate): 4.90 % w/w
- Impurity A ([4]; pH 11.0, Phosphate): 2.61 % w/w
- Total Impurities ([4]; pH 11.0, Phosphate): 4.28 % w/w
- Impurity A ([4]; pH 12.0, 0.1M NaOH): 2.42 % w/w
- Total Impurities ([4]; pH 12.0, 0.1M NaOH): 4.39 % w/w
SMILES: CSCCNc1nc(SCCC(F)(F)F)nc2c1ncn2[C@@H]1O[C@H](COP(=O)(O)OP(=O)(O)C(Cl)(Cl)P(=O)(O)O)[C@@H](O)[C@H]1O [Cangrelor, [dichloro-[[[(2R,3S,4R,5R)-3,4-dihydroxy-5-[6-(2-methylsulfanylethylamino)-2-(3,3,3-trifluoropropylsulfanyl)purin-9-yl]oxolan-2-yl]methoxy-hydroxyphosphoryl]oxy-hydroxyphosphoryl]methyl]phosphonic acid]

- Impurity A concentration ([1]; 1 month): 0.36 % w/w
- Impurity B concentration ([1]; 1 month): 0.19 % w/w
- Impurity C concentration ([1]; 1 month): 0.06 % w/w
- Total impurities concentration ([1]; 1 month): 1.10 % w/w
- Moisture concentration ([1]; 1 month): 6.9 % w/w
- Impurity A concentration ([1]; 3 months): 0.51 % w/w
- Impurity B concentration ([1]; 3 months): 0.32 % w/w
- Impurity C concentration ([1]; 3 months): 0.08 % w/w
- Total impurities concentration ([1]; 3 months): 1.50 % w/w
- Moisture concentration ([1]; 3 months): 9.9 % w/w
- Impurity A concentration ([1]; 6 months): 0.70 % w/w
- Impurity B concentration ([1]; 6 months): 0.48 % w/w
- Impurity C concentration ([1]; 6 months): 0.19 % w/w
- Total impurities concentration ([1]; 6 months): 1.90 % w/w
- Moisture concentration ([1]; 6 months): 11.6 % w/w
- Impurity A concentration ([1]; Initial): 0.31 % w/w
- Impurity B concentration ([1]; Initial): 0.11 % w/w
- Impurity C concentration ([1]; Initial): <0.05 % w/w
- Total impurities concentration ([1]; Initial): 0.80 % w/w
- Moisture concentration ([1]; Initial): 7.0 % w/w
SMILES: CSCCNc1nc(SCCC(F)(F)F)nc2c1ncn2[C@@H]1O[C@H](COP(=O)([O-])OP(=O)([O-])C(Cl)(Cl)P(=O)([O-])[O-])[C@@H](O)[C@H]1O.[Na+].[Na+].[Na+].[Na+] [API B]
- storage stability, conclusion in words [1]: display significant degradation over time

- hygroscopicity [5]: hygroscopic
SMILES: CSCCNc1nc(SCCC(F)(F)F)nc2c1ncn2[C@@H]1O[C@H](COP(=O)(O)OP(=O)(O)C(Cl)(Cl)P(=O)(O)O)[C@@H](O)[C@H]1O [cangrelor tetrasodium]

Reference: patent US10039780B2 (Chiesi Farmaceutici S.p.A., priority 2015, dated 2018)
